Reference: patent US10604509B2, “Nrf2 regulators” (GlaxoSmithKline Intellectual Property Development Limited, priority 2015, dated 2020)
pEC50: −log10 of the molar value. Structures can show the parent of a compound that is named as a salt. Where two headings read alike, the source gives them in different places.

Test system: NQO1 specific enzyme activity in BEAS-2B cells
Assay: BEAS-2B NQO1 MTT assay
Type: cell-based
Conditions: BEAS-2B cells, 48 hours with compound, MTT readout, read-out: EC50 of NQO1 specific activity induction
Method in brief: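 BEAS-2B cells treated with compound 48 h at 37° C, 5% CO2, then lysed; NQO1 activity in lysate measured kinetically by MTT cocktail at Absorbance 570 nm over 30 min. EC50 for induction from Delta OD/min versus log concentration, 3-parameter fit; Cell Titer Glo run on lysate aliquot.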

Structure (SMILES) | pEC50 (Homo sapiens, BEAS-2B, 48 h) | pEC50
CC[C@@H]1CN(Cc2cc(C(CC(=O)O)c3ncc4c(nnn4C)c3C)ccc2C)Cc2ccccc2O1 (stereo partly drawn) [Example 48, 3-(3,7-Dimethyl-3H-[1,2,3]triazolo[4,5-c]pyridin-6-yl)-3-(3-(((R)-2-ethyl-2,3-dihydrobenzo[f][1,4]oxazepin-4(5H)-yl)methyl)-4-methylphenyl)propanoic Acid, Trifluoroacetic Acid Salt] | 6.00 to 7.00 | –
Cc1c(C(CC(=O)O)c2ccc(Cl)c(CN3Cc4ncccc4OC(C)(C)C3)c2)ccc2c1nnn2C (single isomer, unassigned; isomer 1) [Example 262] | 7.00 to 8.00 | –
COc1ccc2c(c1)CN(Cc1cc([C@@H](CC(=O)O)c3ccc4c(nnn4C)c3C)ccc1C)CC(C)(C)O2 [Example 166, (R)-3-(1,4-Dimethyl-1H-benzo[d][1,2,3]triazol-5-yl)-3-(3-((7-methoxy-2,2-dimethyl-2,3-dihydrobenzo[f][1,4]oxazepin-4(5H)-yl)methyl)-4-methylphenyl)propanoic acid] | 7.00 to 8.00 | –
CCc1nc(C2CCCCN2Cc2cc(C(CC(=O)O)c3ccc4c(nnn4C)c3C)ccc2C)no1 (stereo not shown) [Example 12, Ammonium 3-(1,4-dimethyl-1H-benzo[d][1,2,3]triazol-5-yl)-3-(3-((2-(5-ethyl-1,2,4-oxadiazol-3-yl)piperidin-1-yl)methyl)-4-methylphenyl)propanoate] | 6.00 to 7.00 | –
Cc1ccc(C(CC(=O)O)c2ccc3c(nnn3C)c2C)cc1CN1Cc2ccc(C#N)cc2OC(C)(C)C1 (single isomer, unassigned) [Example 174] | – | 7.00 to 8.00
CC[C@@H]1CN(Cc2cc(C(c3ccc4c(nnn4C)c3C)C(C)(C)C(=O)O)cnc2C)Cc2cnccc2O1 (stereo partly drawn) [Example 213, 3-(1,4-Dimethyl-1H-benzo[d][1,2,3]triazol-5-yl)-3-(5-(((R)-2-ethyl-2,3-dihydropyrido[3,4-f][1,4]oxazepin-4(5H)-yl)methyl)-6-methylpyridin-3-yl)-2,2-dimethylpropanoic acid, Trifluoroacetic Acid Salt] | 6.00 to 7.00 | –
CCn1nnc2c(Cl)c([C@H](c3ccc(C)c(CN4Cc5cccnc5OC(C)(C)C4)c3)[C@@H](C)C(=O)O)ccc21 [Example 194, (2R,3S)-3-(4-Chloro-1-ethyl-1H-benzo[d][1,2,3]triazol-5-yl)-3-(3-((2,2-dimethyl-2,3-dihydropyrido[3,2-f][1,4]oxazepin-4(5H)-yl)methyl)-4-methylphenyl)-2-methylpropanoic acid] | 7.00 to 8.00 | –
Cc1cc2c(cn1)CN(Cc1cc(C(CC(=O)O)c3ccc4c(nnn4C)c3C)ccc1C)CC(C)(C)O2 (stereo not shown) [Example 108, 3-(1,4-dimethyl-1H-benzo[d][1,2,3]triazol-5-yl)-3-(4-methyl-3-((2,2,8-trimethyl-2,3-dihydropyrido[3,4-f][1,4]oxazepin-4(5H)-yl)methyl)phenyl)propanoic Acid, Formic Acid Salt] | 5.00 to 6.00 | –
CCn1nnc2c(C)c([C@@H](c3ccc(C)c(CN4Cc5ccccc5OC(C)(C)C4)c3)[C@H](C)C(=O)O)ccc21 [Example 200, (2S,3R)-3-(3-((2,2-Dimethyl-2,3-dihydrobenzo[f][1,4]oxazepin-4(5H)-yl)methyl)-4-methylphenyl)-3-(1-ethyl-4-methyl-1H-benzo[d][1,2,3]triazol-5-yl)-2-methylpropanoic Acid, 2 Trifluoroacetic Acid Salt] | 7.00 to 8.00 | –
CC[C@@H]1CN(Cc2cc([C@H](c3ccc4c(nnn4CC)c3C)[C@H](C)C(=O)O)ccc2C)Cc2ccccc2O1 [Example 199, (2S,3R)-3-(3-(((R)-2-Ethyl-2,3-dihydrobenzo[f][1,4]oxazepin-4(5H)-yl)methyl)-4-methylphenyl)-3-(1-ethyl-4-methyl-1H-benzo[d][1,2,3]triazol-5-yl)-2-methylpropanoic acid] | – | 7.00 to 8.00
CCn1nnc2c(F)c([C@@H](CC(=O)O)c3ccc(C)c(CN4Cc5ccccc5OC(C)(C)C4)c3)ccc21 [Example 64, (S)-3-(3-((2,2-Dimethyl-2,3-dihydrobenzo[f][1,4]oxazepin-4(5H)-yl)methyl)-4-methylphenyl)-3-(1-ethyl-4-fluoro-1H-benzo[d][1,2,3]triazol-5-yl)propanoic Acid] | 7.00 to 8.00 | –
CC[C@@H]1CN(Cc2cc([C@@H](c3ccc4c(nnn4C)c3C)C(C)(C)C(=O)O)ccc2C)Cc2cncc(F)c2O1 [Example 28, (S)-3-(1,4-Dimethyl-1H-benzo[d][1,2,3]triazol-5-yl)-3-(3-(((R)-2-ethyl-9-fluoro-2,3-dihydropyrido[3,4-f][1,4]oxazepin-4(5H)-yl)methyl)-4-methylphenyl)-2,2-dimethylpropanoic acid] | > 9.00 | –
CCC1CN(Cc2cc([C@H](CC(=O)O)c3ccc4c(nnn4C)c3C)ccc2C)Cc2ccccc2O1 (stereo partly drawn) [Example 5, (3S)-3-(1,4-Dimethyl-1H-benzo[d][1,2,3]triazol-5-yl)-3-(3-((2-ethyl-2,3-dihydrobenzo[f][1,4]oxazepin-4(5H)-yl)methyl)-4-methylphenyl)propanoic Acid, Trifluoroacetic Acid Salt] | 7.00 to 8.00 | –
CC[C@@H]1CN(Cc2cc(C(CC(=O)O)c3ccc4c(nnn4C)c3C)ccc2C)Cc2cccc(C)c2O1 (stereo partly drawn) [Example 76, Ammonium 3-(1,4-Dimethyl-1H-benzo[d][1,2,3]triazol-5-yl)-3-(3-(((R)-2-ethyl-9-methyl-2,3-dihydrobenzo[f][1,4]oxazepin-4(5H)-yl)methyl)-4-methylphenyl)propanate] | 6.00 to 7.00 | –
CCC1(C)CN(Cc2cc([C@@H](c3ccc4c(nnn4C)c3C)C(C)(C)C(=O)O)ccc2C)Cc2ccccc2O1 (stereo partly drawn) [Example 240, (3S)-3-(1,4-Dimethyl-1H-benzo[d][1,2,3]triazol-5-yl)-3-(3-((2-ethyl-2-methyl-2,3-dihydrobenzo[f][1,4]oxazepin-4(5H)-yl)methyl)-4-methylphenyl)-2,2-dimethylpropanoic Acid] | 8.00 to 9.00 | –
Cc1ccc([C@@H](c2ccc3c(nnn3C)c2C)C(C)(C)C(=O)O)cc1CN1CCC[C@@H](n2cccn2)C1 [compound 184, (S)-3-(3-(((R)-3-(1H-Pyrazol-1-yl)piperidin-1-yl)methyl)-4-methylphenyl)-3-(1,4-dimethyl-1H-benzo[d][1,2,3]triazol-5-yl)-2,2-dimethylpropanoic acid] | 6.00 to 7.00 | –
Cc1ccc(C(c2ccc3c(nnn3C)c2C)C(C)(C)C(=O)O)cc1CN1Cc2cccnc2OC(C)(C)C1 (stereo not shown) [Example 23, 3-(1,4-Dimethyl-1H-benzo[d][1,2,3]triazol-5-yl)-3-(3-((2,2-dimethyl-2,3-dihydropyrido[3,2-f][1,4]oxazepin-4(5H)-yl)methyl)-4-methylphenyl)-2,2-dimethylpropanoic Acid, Trifluoroacetic Acid] | 7.00 to 8.00 | –
CC[C@@H]1CN(Cc2cc([C@H](CC(=O)O)c3ccc4c(nnn4C)c3C)ccc2C)Cc2ccncc2O1 [Example 259, (S)-3-(1,4-dimethyl-1H-benzo[d][1,2,3]triazol-5-yl)-3-(3-(((R)-2-ethyl-2,3-dihydropyrido[4,3-f][1,4]oxazepin-4(5H)-yl)methyl)-4-methylphenyl)propanoic acid] | 6.00 to 7.00 | –
CCn1cc(CCC(c2ccc(C)c(CN3Cc4cnccc4OC(C)(C)C3)c2)C(C)C(=O)O)nn1 (single isomer, unassigned) [Example 228, 3-(3-((2,2-Dimethyl-2,3-dihydropyrido[3,4-f][1,4]oxazepin-4(5H)-yl)methyl)-4-methylphenyl)-5-(1-ethyl-1H-1,2,3-triazol-4-yl)-2-methylpentanoic acid] | – | 6.00 to 7.00
